Assay results reported in ChEMBL document CHEMBL4325844, “Development of 2-amino-4-phenylthiazole analogues to disrupt myeloid differentiation factor 88 and prevent inflammatory responses in acute lung injury” (Eur J Med Chem, 2019).
Active and inactive are the calls of the source. The calls are words filed in the database; no cut-off is given here.

Key:
[1] = biological target: Toll-like receptor 4 (Homo sapiens) (UniProt O00206); experiment: Binding affinity to recombinant human 10His-tagged TLR4 (24 to 631 residues) by SPR assay
[2] = system: Mus musculus; experiment: Antiinflammatory activity in LPS-induced C57/BL6 mouse model of acute lung injury assessed as reduction in IL1beta mRNA expression at 10 mg/kg, ip pretreated for 30 mins followed by LPS challenge measured after 6 hrs by SYBR green dye based RT-qPCR analysis; assay type: functional, organism-based
[3] = system: Mus musculus; experiment: Antiinflammatory activity in LPS-induced C57/BL6 mouse model of acute lung injury assessed as reduction in neutrophil inflammatory infiltration at 10 mg/kg, ip pretreated for 30 mins followed by LPS challenge measured after 6 hrs by F4/80/hematoxylin staining based microscopic analysis; assay type: functional, organism-based
[4] = biological target: Myeloid differentiation primary response protein MyD88 (Mus musculus) (UniProt P22366); experiment: Inhibition of MyD88 in ICR mouse primary peritoneal macrophages assessed as reduction in LPS-induced IkappaB levels at 20 uM preincubated for 30 mins followed by LPS-stimulation and measured after 20 mins by Western blot analysis
[5] = system: Mus musculus; experiment: Antiinflammatory activity in LPS-induced C57/BL6 mouse model of acute lung injury assessed as reduction in lung wet/dry ratio at 10 mg/kg, ip pretreated for 30 mins followed by LPS challenge measured after 6 hrs; assay type: functional, organism-based
[6] = system: Peritoneal macrophage; experiment: Antiinflammatory activity in ICR mouse primary peritoneal macrophages assessed as inhibition of LPS-induced IL-6 production preincubated for 2 hrs followed by LPS stimulation and measured after 22 hrs by ELISA; assay type: functional, cell-based
[7] = system: Mus musculus; experiment: Antiinflammatory activity in LPS-induced C57/BL6 mouse model of acute lung injury assessed as reduction in IL6 level in serum at 10 mg/kg, ip pretreated for 30 mins followed by LPS challenge measured after 6 hrs by ELISA; assay type: functional, organism-based
[8] = system: Mus musculus; experiment: Antiinflammatory activity in LPS-induced C57/BL6 mouse model of acute lung injury assessed as reduction in TNFalpha mRNA expression at 10 mg/kg, ip pretreated for 30 mins followed by LPS challenge measured after 6 hrs by SYBR green dye based RT-qPCR analysis; assay type: functional, organism-based
[9] = biological target: T1, Myeloid differentiation primary response protein MyD88 (Homo sapiens, UniProt Q99836); experiment: Inhibition of LPS-induced HA-tagged MyD88 (unknown origin) interaction with FLAG-tagged MyD88 (unknown origin) expressed in HEK293 cells at 20 uM after 48 hrs by co-immunoprecipitation method; assay type: cell-based
[10] = Cytotoxicity against ICR mouse primary peritoneal macrophages assessed as cell viability at 20 uM after 24 hrs by MTT assay relative to control; assay type: cell-based, Peritoneal macrophage; details: read-out: Activity
[11] = biological target: Toll-like receptor 4/MD-2 (Homo sapiens) (UniProt O00206+Q9Y6Y9); experiment: Inhibition of LPS-induced HA/FLAG-tagged TLR4 (unknown origin) interaction with MD2 (unknown origin) expressed in HEK293 cells at 20 uM after 48 hrs by co-immunoprecipitation method; assay type: cell-based
[12] = biological target: Toll-like receptor 4/Ly96 (Mus musculus) (UniProt Q9QUK6+Q9JHF9); experiment: Inhibition of TLR4/MD2 interaction in LPS-induced mouse RAW264.7 at 20 uM measured after 30 mins by co-immunoprecipitation method; assay type: cell-based
[13] = system: Mus musculus; experiment: Antiinflammatory activity in LPS-induced C57/BL6 mouse model of acute lung injury assessed as reduction in IL6 mRNA expression at 10 mg/kg, ip pretreated for 30 mins followed by LPS challenge measured after 6 hrs by SYBR green dye based RT-qPCR analysis; assay type: functional, organism-based
[14] = biological target: Myeloid differentiation primary response protein MyD88 (Mus musculus) (UniProt P22366); experiment: Inhibition of MyD88 in ICR mouse primary peritoneal macrophages assessed as reduction in LPS-induced JNK phosphorylation at 20 uM preincubated for 30 mins followed by LPS-stimulation and measured after 20 mins by Western blot analysis
[15] = system: Peritoneal macrophage; experiment: Potency index, ratio of TJ-M2010-5 IC50 to test compound IC50 for inhibition of LPS-induced TNFalpha production in ICR mouse primary peritoneal macrophages; assay type: functional
[16] = system: Peritoneal macrophage; experiment: Antiinflammatory activity in ICR mouse primary peritoneal macrophages assessed as inhibition of LPS-induced IL-6 production at 20 uM preincubated for 60 mins followed by LPS stimulation and measured after 24 hrs by ELISA relative to control; assay type: functional
[17] = system: Mus musculus; experiment: Antiinflammatory activity in LPS-induced C57/BL6 mouse model of acute lung injury assessed as reduction in IL6 level in BALF at 10 mg/kg, ip pretreated for 30 mins followed by LPS challenge measured after 6 hrs by ELISA; assay type: functional, organism-based
[18] = system: Mus musculus; experiment: Antiinflammatory activity in LPS-induced C57/BL6 mouse model of acute lung injury assessed as reduction in total protein levels in BALF at 10 mg/kg, ip pretreated for 30 mins followed by LPS challenge measured after 6 hrs; assay type: functional, organism-based
[19] = system: Peritoneal macrophage; experiment: Antiinflammatory activity in ICR mouse primary peritoneal macrophages assessed as inhibition of LPS-induced TNFalpha production preincubated for 2 hrs followed by LPS stimulation and measured after 22 hrs by ELISA; assay type: functional, cell-based
[20] = biological target: T1, Myeloid differentiation primary response protein MyD88; experiment: Potency index, ratio of TJ-M2010-5 Kd to test compound Kd for recombinant human MyD88 TIR domain (157 to 296 residues) expressed in Escherichia coli BL21(DE3)
[21] = system: Mus musculus; experiment: Antiinflammatory activity in LPS-induced C57/BL6 mouse model of acute lung injury assessed as reduction in inflammatory infiltration at 10 mg/kg, ip pretreated for 30 mins followed by LPS challenge measured after 6 hrs by hematoxylin and eosin staining based microscopic analysis; assay type: functional, organism-based
[22] = system: Mus musculus; experiment: Antiinflammatory activity in LPS-induced C57/BL6 mouse model of acute lung injury assessed as reduction in TNFalpha level in BALF at 10 mg/kg, ip pretreated for 30 mins followed by LPS challenge measured after 6 hrs by ELISA; assay type: functional, organism-based
[23] = Cytotoxicity against rat NRK cells assessed as cell viability at 20 uM after 24 hrs by MTT assay relative to control; assay type: cell-based; details: read-out: Activity
[24] = biological target: Myeloid differentiation primary response protein MyD88 (Mus musculus) (UniProt P22366); experiment: Inhibition of MyD88 in ICR mouse primary peritoneal macrophages assessed as reduction in LPS-induced p38 MAPK phosphorylation at 20 uM preincubated for 30 mins followed by LPS-stimulation and measured after 20 mins by Western blot analysis
[25] = biological target: Myeloid differentiation primary response protein MyD88 (Mus musculus) (UniProt P22366); experiment: Inhibition of MyD88 in ICR mouse primary peritoneal macrophages assessed as reduction in LPS-induced ERK phosphorylation at 20 uM preincubated for 30 mins followed by LPS-stimulation and measured after 20 mins by Western blot analysis
[26] = biological target: Myeloid differentiation primary response protein MyD88 (Mus musculus) (UniProt P22366); experiment: Inhibition of MyD88 in ICR mouse primary peritoneal macrophages assessed as reduction in LPS-induced NFkappaB translocation at 20 uM preincubated for 30 mins followed by LPS-stimulation and measured after 20 mins by immunofluorescence microscopic analysis
[27] = system: Mus musculus; experiment: Antiinflammatory activity in LPS-induced C57/BL6 mouse model of acute lung injury assessed as reduction in lung tissue destruction at 10 mg/kg, ip pretreated for 30 mins followed by LPS challenge measured after 6 hrs by hematoxylin and eosin staining based microscopic analysis; assay type: functional, organism-based
[28] = system: Mus musculus; experiment: Antiinflammatory activity in LPS-induced C57/BL6 mouse model of acute lung injury assessed as reduction in macrophage inflammatory infiltration at 10 mg/kg, ip pretreated for 30 mins followed by LPS challenge measured after 6 hrs by F4/80/hematoxylin staining based microscopic analysis; assay type: functional, organism-based

Myeloid differentiation primary response protein MyD88 (Mus musculus), sequence (P22366 whole entry): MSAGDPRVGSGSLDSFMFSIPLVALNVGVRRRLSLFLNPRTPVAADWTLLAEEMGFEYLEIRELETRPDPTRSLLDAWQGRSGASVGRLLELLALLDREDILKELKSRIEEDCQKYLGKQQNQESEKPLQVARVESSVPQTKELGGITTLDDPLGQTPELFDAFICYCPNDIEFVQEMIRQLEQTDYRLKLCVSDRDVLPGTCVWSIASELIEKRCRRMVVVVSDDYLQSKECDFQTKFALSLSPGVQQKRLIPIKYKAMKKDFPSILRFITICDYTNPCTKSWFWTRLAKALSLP
T1 sequence (Q99836 whole entry): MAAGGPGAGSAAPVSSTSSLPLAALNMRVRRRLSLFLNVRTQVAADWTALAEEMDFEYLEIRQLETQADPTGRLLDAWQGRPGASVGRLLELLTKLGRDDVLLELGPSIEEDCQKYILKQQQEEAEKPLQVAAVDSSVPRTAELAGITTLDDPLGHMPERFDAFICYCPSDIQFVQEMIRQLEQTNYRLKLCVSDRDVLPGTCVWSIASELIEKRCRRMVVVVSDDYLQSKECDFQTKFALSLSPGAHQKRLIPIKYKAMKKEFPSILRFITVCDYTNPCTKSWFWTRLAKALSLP
Toll-like receptor 4 (Homo sapiens), sequence (O00206 whole entry, the tested form may be a part): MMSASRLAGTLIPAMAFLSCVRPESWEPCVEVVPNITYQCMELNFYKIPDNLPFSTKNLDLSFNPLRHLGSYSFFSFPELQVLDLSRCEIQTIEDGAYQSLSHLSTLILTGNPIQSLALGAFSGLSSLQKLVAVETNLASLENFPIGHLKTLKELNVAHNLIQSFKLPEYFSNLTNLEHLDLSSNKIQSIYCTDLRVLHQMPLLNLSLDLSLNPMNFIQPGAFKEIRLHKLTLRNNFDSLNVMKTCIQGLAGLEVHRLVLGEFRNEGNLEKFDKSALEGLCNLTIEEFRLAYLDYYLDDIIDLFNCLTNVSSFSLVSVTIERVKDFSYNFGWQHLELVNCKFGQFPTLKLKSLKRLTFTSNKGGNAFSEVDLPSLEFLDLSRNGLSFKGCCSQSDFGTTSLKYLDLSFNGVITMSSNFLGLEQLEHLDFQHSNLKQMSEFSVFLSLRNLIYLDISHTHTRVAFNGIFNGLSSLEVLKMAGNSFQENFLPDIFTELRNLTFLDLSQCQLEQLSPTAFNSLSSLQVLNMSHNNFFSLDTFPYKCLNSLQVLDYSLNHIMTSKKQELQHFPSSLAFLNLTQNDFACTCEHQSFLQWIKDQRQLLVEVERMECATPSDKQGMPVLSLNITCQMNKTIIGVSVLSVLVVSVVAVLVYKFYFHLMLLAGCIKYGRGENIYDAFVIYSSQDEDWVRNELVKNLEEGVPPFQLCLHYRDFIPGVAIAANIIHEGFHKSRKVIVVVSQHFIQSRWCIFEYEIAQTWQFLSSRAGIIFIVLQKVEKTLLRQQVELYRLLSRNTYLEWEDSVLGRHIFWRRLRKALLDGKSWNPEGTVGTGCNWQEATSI

COc1cc(-c2csc(NC(=O)CCN3CCN(Cc4cccc([N+](=O)[O-])c4)CC3)n2)ccc1O
Activity [1]: inactive | Activity [2]: Active | Activity [3]: Active | inhibition [4]: Active | Activity [5]: Active | IC50 [6]: 2520 nM | inhibition [6]: Dose-dependent effect | Activity [7]: Active | Activity [8]: Active | inhibition [9]: Active | viability at 24 h, 20 µM [10]: > 80% | inhibition [11]: inactive | inhibition [12]: inactive | Activity [13]: Active | inhibition [14]: Active | Ratio IC50 [15]: 13 | inhibition at 20 µM [16]: 95% | Activity [17]: Active | Activity [18]: Active | IC50 [19]: 890 nM | inhibition [19]: Dose-dependent effect | Ratio [20]: 5 | Activity [21]: Active | Activity [22]: Active | viability at 24 h, 20 µM [23]: > 80% | inhibition [24]: Active | inhibition [25]: Active | inhibition [26]: Active | Activity [27]: Active | Activity [28]: Active
